Data: patent publication US11612553B2, “Oral care product and methods of use and manufacture thereof” (Colgate-Palmolive Company, priority 2008, dated 2023)

Test system: S. sanguis
Test: Ammonia production by S. sanguis at pH 4.0
Type: cell-based
Conditions: mean of 6 trials; 5 millimolar amino acid, pH 4.0, 0.1% sucrose, 37° C., 30 minutes
Method: An overnight culture of S. sanguis was grown at 37° C. in trypticase soy broth (Becton Dickinson, Sparks, Md.). The culture was centrifuged at 5,000 rpm for 5 minutes at 1 milliliter at a time into preweighed tubes in order to accumulate approximately 5 milligrams of wet pellet weight. The pellet was then resuspended into 20 millimolar potassium phosphate buffer (JT Baker, Phillipsburg, N.J.), pH 4.0, to simulate a stressed environment for the bacterial cell where ammonia would be produced for survival. The final concentration was 5 milligram per milliliter. To this final concentration, a 5 millimolar final concentration of L-arginine, L-citrulline, or L-ornithine was added along with a 0.1% final concentration of sucrose (VWR, West Chester, Pa.). This mixture was then incubated at 37° C. in a shaking water bath for 30 minutes before ammonia production was determined.
In order to analyze for ammonia, an Ammonia Assay kit was used from Diagnostic Chemicals Limited (Oxford, Conn.). The intended use of this specific kit is for the in vitro quantification of ammonia in plasma, but the procedure was modified in order to determine and quantify the ammonia production in plaque and/or bacteria.

## N=C(N)NCCC[C@H](N)C(=O)O [L-Arginine, L-arginine]
  Ammonia, Mean: 1.06 ppm

## NC(=O)NCCC[C@H](N)C(=O)O [L-Citrulline, L-citrulline]
  Ammonia, Mean: 0.951 ppm
